Experimental data as given in patent US10709706B2, “Nuclear transport modulators and uses thereof” (Karyopharm Therapeutics Inc., priority 2015, dated 2020).

Key:
Assay type in all cases: cell-based
3T3 cells = assay: MTT cell proliferation assay, 3T3 cells; conditions: Mus musculus, NIH3T3, 3T3 fibroblast cells, approximately 64-72 hours, 1 nM to 30 μM
Procedure: (§1) The MTT cell proliferation assay was used to study the cytotoxic properties of the compounds. The assay was performed according to the method described by Roche Molecular Biochemicals, with minor modifications. The assay is based on the cleavage of the tetrazolium salt, MTT, in the presence of an electron-coupling reagent. The water-insoluble formazan salt produced must be solubilized in an additional step. Cells grown in a 96-well tissue culture plate were incubated with the MTT solution for approximately 4 hours. After this incubation period, a water-insoluble formazan dye formed. After solubilization, the formazan dye was quantitated using a scanning multi-well spectrophotometer (ELISA reader). […] The cells were seeded at 5,000-10,000 cells in each well of 96-well plate in 100 μL of fresh culture medium and were allowed to attach overnight. The stock solutions of the compounds were diluted in 100 μL cell culture medium to obtain eight concentrations of each test compound, ranging from 1 nM to 30 μM. […] All optical densities were measured at 490 nm using a Vmax Kinetic Microplate Reader (Molecular Devices). In most cases, the assay was performed in duplicate and the results were presented as a mean percent inhibition to the negative control±SE. The following formula was used to calculate the percent of inhibition: Inhibition (%)=(1−(ODo/OD))×100.
(§2) The compounds were tested against Z138, MM1S and 3T3 cells. The Z138 cell line is a mature B-cell acute lymphoblastic leukemia cell line derived from a patient with chronic lymphocytic leukemia. The MM1S cell line was established from the peripheral blood of a human multiple myeloma patient. 3T3 cells are standard fibroblast cells; they were originally isolated from Swiss mouse embryo tissue.

Z138 cells = assay: MTT cell proliferation assay, Z138 cells; conditions: Homo sapiens, Z-138, approximately 64-72 hours, 1 nM to 30 μM
Procedure: as §1, §2

MM1S cells = assay: MTT cell proliferation assay, MM1S cells; conditions: Homo sapiens, MM1.S, MM1S multiple myeloma cells, approximately 64-72 hours, 1 nM to 30 μM
Procedure: as §1, §2

`NC(=O)/C(=C/c1ccnc(-c2cc(C(F)(F)F)cc(C(F)(F)F)c2)n1)c1cccc(S(=O)(=O)N2CCCCC2)c1` [Compound 167, (E)-3-(2-(3,5-bis(trifluoromethyl)phenyl)pyrimidin-4-yl)-2-(3-(piperidin-1-ylsulfonyl)phenyl)acrylamide] was tested, and the IC50 (3T3 cells) was over 30 µM, the IC50 (Z138 cells) was over 30 µM and the IC50 (MM1S cells) was over 30 µM.

In the case of `NC(=O)/C(=C\c1nccc(-c2cc(C(F)(F)F)cc(C(F)(F)F)c2)n1)c1cncnc1` [Compound 110, (Z)-3-(4-(3,5-bis(trifluoromethyl)phenyl)pyrimidin-2-yl)-2-(pyrimidin-5-yl)acrylamide], the IC50 (3T3 cells) is reported as over 30 µM, the IC50 (Z138 cells) is reported as over 30 µM and the IC50 (MM1S cells) is reported as over 30 µM.

`CCOC(=O)/C(Br)=C/c1cncc(-c2cc(C(F)(F)F)cc(C(F)(F)F)c2)n1` [Compound 102, ethyl (Z)-3-(6-(3,5-bis(trifluoromethyl)phenyl)pyrazin-2-yl)-2-bromoacrylate] showed an IC50 (3T3 cells) of over 30 µM, an IC50 (Z138 cells) of 0.1 to 5 µM and an IC50 (MM1S cells) of 0.1 to 5 µM.

Work on `NC(=O)/C(=C/c1ccnc(-c2cc(C(F)(F)F)cc(C(F)(F)F)c2)n1)c1cnc(Cl)nc1` [Compound 149, (E)-3-(2-(3,5-bis(trifluoromethyl)phenyl)pyrimidin-4-yl)-2-(2-chloropyrimidin-5-yl)acrylamide] yielded an IC50 (3T3 cells) of over 30 µM, an IC50 (Z138 cells) of 0.1 to 5 µM and an IC50 (MM1S cells) of 0.1 to 5 µM.

`Cc1noc(C)c1/C(=C\c1ccnc(-c2cc(C(F)(F)F)cc(C(F)(F)F)c2)n1)C(N)=O` [Compound 124, (E)-3-(2-(3,5-bis(trifluoromethyl)phenyl)pyrimidin-4-yl)-2-(3,5-dimethylisoxazol-4-yl)acrylamide] was tested, and the IC50 (3T3 cells) was over 30 µM, the IC50 (Z138 cells) was over 30 µM and the IC50 (MM1S cells) was over 30 µM.

`NC(=O)/C(=C/c1ccnc(-c2cc(C(F)(F)F)cc(C(F)(F)F)c2)n1)c1cccc(S(=O)(=O)N2CCC(F)CC2)c1` [Compound 131, (E)-3-(2-(3,5-bis(trifluoromethyl)phenyl)pyrimidin-4-yl)-2-(3-((4-fluoropiperidin-1-yl)sulfonyl)phenyl)acrylamide] showed an IC50 (3T3 cells) of over 30 µM, an IC50 (Z138 cells) of over 30 µM and an IC50 (MM1S cells) of over 30 µM.

`NC(=O)/C(=C/c1ccnc(-c2cc(C(F)(F)F)cc(C(F)(F)F)c2)n1)c1ccc(N2CCOCC2)cc1` [Compound 165, (E)-3-(2-(3,5-bis(trifluoromethyl)phenyl)pyrimidin-4-yl)-2-(4-morpholinophenyl)acrylamide] gave an IC50 (3T3 cells) of over 30 µM, an IC50 (Z138 cells) of over 30 µM and an IC50 (MM1S cells) of over 30 µM.

`NC(=O)/C(=C/c1ccnc(-c2cc(C(F)(F)F)cc(C(F)(F)F)c2)n1)c1ccc(OC(F)(F)F)cc1` [Compound 134, (E)-3-(2-(3,5-bis(trifluoromethyl)phenyl)pyrimidin-4-yl)-2-(4-(trifluoromethoxy)phenyl)acrylamide] showed an IC50 (3T3 cells) of over 30 µM, an IC50 (Z138 cells) of over 30 µM and an IC50 (MM1S cells) of over 30 µM.

`NC(=O)/C(=C/c1ccnc(-c2cc(C(F)(F)F)cc(C(F)(F)F)c2)n1)c1cccc(S(=O)(=O)N2CCC2)c1` [Compound 166, (E)-2-(3-(azetidin-1-ylsulfonyl)phenyl)-3-(2-(3,5-bis(trifluoromethyl)phenyl)pyrimidin-4-yl)acrylamide] gave an IC50 (3T3 cells) of over 30 µM, an IC50 (Z138 cells) of over 30 µM and an IC50 (MM1S cells) of over 30 µM.

With `CCOC(=O)/C=C/c1cncc(-c2cc(C(F)(F)F)cc(C(F)(F)F)c2)n1` [Compound 101, ethyl (E)-3-(6-(3,5-bis(trifluoromethyl)phenyl)pyrazin-2-yl)acrylate] the IC50 (3T3 cells) was over 30 µM, the IC50 (Z138 cells) was over 30 µM and the IC50 (MM1S cells) was over 30 µM.

With `NC(=O)/C(=C/c1ccnc(-c2cc(C(F)(F)F)cc(C(F)(F)F)c2)n1)c1ccc(S(=O)(=O)N2CC(F)C2)cc1` [Compound 126, (E)-3-(2-(3,5-bis(trifluoromethyl)phenyl)pyrimidin-4-yl)-2-(4-((3-fluoroazetidin-1-yl)sulfonyl)phenyl)acrylamide] the IC50 (3T3 cells) was over 30 µM, the IC50 (Z138 cells) was over 30 µM and the IC50 (MM1S cells) was over 30 µM.

In the case of `NC(=O)/C(=C/c1ccnc(-c2cc(C(F)(F)F)cc(C(F)(F)F)c2)n1)c1ccc2cn[nH]c2c1` [Compound 140, (E)-3-(2-(3,5-bis(trifluoromethyl)phenyl)pyrimidin-4-yl)-2-(1H-indazol-6-yl)acrylamide], the IC50 (3T3 cells) is reported as over 30 µM, the IC50 (Z138 cells) is reported as 0.1 to 5 µM and the IC50 (MM1S cells) is reported as over 30 µM.

Work on `NC(=O)/C(=C/c1ccnc(-c2cc(C(F)(F)F)cc(C(F)(F)F)c2)n1)c1ccc(S(=O)(=O)C2CC2)cc1` [Compound 122, (E)-3-(2-(3,5-bis(trifluoromethyl)phenyl)pyrimidin-4-yl)-2-(4-(cyclopropylsulfonyl)phenyl)acrylamide] yielded an IC50 (3T3 cells) of over 30 µM, an IC50 (Z138 cells) of 0.1 to 5 µM and an IC50 (MM1S cells) of 5 to 30 µM.

In the case of `NC(=O)/C(=C/c1ccnc(-c2cc(C(F)(F)F)cc(C(F)(F)F)c2)n1)c1csc2ccccc12` [Compound 123, (E)-2-(benzo[b]thiophen-3-yl)-3-(2-(3,5-bis(trifluoromethyl)phenyl)pyrimidin-4-yl)acrylamide], the IC50 (3T3 cells) is reported as over 30 µM, the IC50 (Z138 cells) is reported as over 30 µM and the IC50 (MM1S cells) is reported as over 30 µM.

`NC(=O)/C(=C/c1ccnc(-c2cc(C(F)(F)F)cc(C(F)(F)F)c2)n1)c1ccc(S(=O)(=O)N2CCCC2)cc1` [Compound 155, (E)-3-(2-(3,5-bis(trifluoromethyl)phenyl)pyrimidin-4-yl)-2-(4-(pyrrolidin-1-ylsulfonyl)phenyl)acrylamide] showed an IC50 (3T3 cells) of over 30 µM, an IC50 (Z138 cells) of over 30 µM and an IC50 (MM1S cells) of 5 to 30 µM.

Work on `CCOC(=O)/C=C/c1ccnc(-c2cc(C(F)(F)F)cc(C(F)(F)F)c2)n1` [Compound 105, ethyl (E)-3-(2-(3,5-bis(trifluoromethyl)phenyl)pyrimidin-4-yl)acrylate] yielded an IC50 (3T3 cells) of over 30 µM, an IC50 (Z138 cells) of over 30 µM and an IC50 (MM1S cells) of over 30 µM.
